Measurements reported in US20200237715A1, “COX-2 Inhibitors for the Treatment of Ocular Disease” (priority 2019, published 2020).
Values joined by “and” are separate entries in the source; they are usually repeats but may differ in a detail not shown here. Equal values may be shown once. Read-outs that look alike come from different tables or passages of the source.

What was measured:
[1] = topical nepafenac, Cmax, cited from earlier work
[2] = Rabbit study: subconjunctival DEPOT of the ethyl ester of SD-8381 in sesame oil, drug concentration in ocular tissues and plasma by LC-MS; format: in vivo, DB rabbits
Procedure: All reagents were obtained from Sigma-Aldrich with the exception that sesame oil was obtained from Sawall, 2965 Oakland Dr, Kalamazoo, Mich. The ethyl ester of SD-8381 was formulated in sesame oil as a saturated solution at room temperature. Saturation was assured by warming under water warm to the touch for 10 minutes and noting that upon returning to room temperature the powder was in equilibrium with what was apparently a crystalline form of the drug in that the small amount of remaining drug was now transparent (for example, the compound had clearly dissolved and crystallized out of solution). The formulation was checked for topical instillation irritancy. Two male DB rabbits were sedated with isoflurane vapors to effect. Eyes were anesthetized with topical proparacaine, the area treated with ophthalmic betadine and rinsed with sterile saline. The test article was injected (0.05 mL) as a subconjunctival DEPOT to two male DB rabbits, OU using a 29 g needle.
The rabbits were sacrificed at a 6-days. Samples collected were (bilateral) aqueous humor, iris plus ciliary body, cornea, conjunctiva, sclera, choroid, retina, lens, vitreous humor and plasma which were placed in tared vials and stored at −20° C. prior to analysis. Care was taken to not cross contaminate fields by dissecting high concentration tissues as separately as possible from other tissues.
The free acid of SD-8381 was formed enzymatically using ethyl 6,8-dichloro-2-(trifluoromethyl)-2H-chromene-3-carboxylate and porcine esterase (all reagents and chemicals are from Sigma-Aldrich). The reaction was initiated by adding 5 mg of compound in methanol to 8 mg of esterase in 250 μL of 50 mM potassium phosphate pH 8 buffer. The reaction proceeded at 37° C. and was complete after 3 hours. Conversion of the […] to the free acid was monitored using HPLC-UV with 254 nm detection and confirmed by flow injection analysis using a Waters Quattro Micro mass spectrometer in negative ion mode at unit resolution. SD-8381 free acid was purified by HPLC fraction collection using a 4.6×250 mm Agilent Eclipse XDB-C18 column using 0.1% formic acid/H2O/acetonitrile mobiles phases. Fractions containing the free acid were dried in a weighed tube using a SpeedVac concentrator.
Free acid SD-8381 was reconstituted in methanol to establish w/v concentration standards for LC-MS analysis. Analytical standards were prepares using EDTA mouse plasma from BioVT. A dilution series of free acid SD-8381 in methanol were spiked into mouse plasma and each concentration was combined with 3 volumes of methanol containing 1 μM diclofenac as a surrogate internal standard as no stable-isotope labeled internal standard (SIL-IS) of SD-8381 is currently available. Standards and plasma blanks were vortex mixed and centrifuged at 13K×g for 5 minutes. Supernatant was transferred to glass insert vials and immediately analyzed by LC-MS analysis. Tissue samples were homogenized using a GE Healthcare sample grinding kit #80-6483-37 and 1 volume of DPBS containing 50% methanol. Proteins were precipitated using 2 additional volumes of methanol and vortex mixing for 5 minutes. Samples were centrifuged at 13K×g for 5 minutes. Supernatant was removed and dried in a SpeedVac concentrator under medium heat. Sample was reconstituted using methanol containing 1 uM Diclofenac. Samples were analyzed using a Waters nanoAcquity UPLC in-line with a high-resolution Waters Synapt G2-S mass spectrometer via an electrospray ion source. UPLC separation of used performed using a 0.375 mm×10 cm Waters XBridge C18 3.5 u column and a flow rate of 10 μL per minute. Mobile phases were 0.1% formic acid in water as mobile phase A and 0.1% formic acid in acetonitrile as mobile phase B. Gradient elution was accomplished with 1% B initial sample loading with ramping to 95% B at 3 minutes, holding at 95% B for 5 minutes, and returning to 1% B at 8.1 minutes. Total run time was 12 minutes and 5 μL of sample was injected per analysis. […]

[3] = Plasma protein binding; format: in vitro ADME
[4] = Dexamethasone periocular DEPOT (sub-Tenon injection), retina-choroid concentrations, literature comparison; format: in vivo; details: dexamethasone sub-Tenon DEPOT versus SD-8381 DEPOT
Procedure: For comparison, the concentrations in the retina-choroid for a DEPOT of a similar lipophilic small molecule, dexamethasone, when placed very close to the retina (sub-Tenon injection) were 0.31 and 0.93 μM [Huang Z, Yang W, Zong Y, Qiu S, Chen X, Sun X, Zhou Y, Xie Z, and Gao Q. A study of the dexamethasone sodium phosphate release properties from a periocular capsular drug delivery system. Drug Delivery 2016:23; 839-847]. […] Also, these dexamethasone data are for a situation where drug delivery has been optimized.

[5] = DEPOT sub-Tenon's sac, steady-state, cited from earlier work
[6] = DEPOT, steady-state, 6 days, high value of the same subject dropped
[7] = SD-8381 free acid measured, subconjunctival DEPOT 0.05 mL OU of ethyl ester in sesame oil, rabbits sacrificed at 6 days

## Nc1c(CC(=O)O)cccc1C(=O)c1ccccc1 [Amfenac, 2-amino-3-benzoylbenzeneacetic acid]
[1]
  Anterior choroid concentration: (0.47) μM
  Anterior retina concentration: (0.011) μM
  Posterior choroid concentration: 0.042 µM
  Posterior retina concentration: 0.00077 µM
[1]; listed as amfenac
  Anterior choroid concentration: 0.468 µM
  Anterior retina concentration: 0.011 µM
  Posterior choroid concentration: 0.0418 µM
  Posterior retina concentration: 0.000765 µM

## O=C(O)C1=Cc2cc(Cl)cc(Cl)c2OC1C(F)(F)F (stereo not drawn) [SD-8381, 6.8-Dichloro-2-trifluoromethyl-2H-1-benzopyran-3-carboxylic acid]
[2]; DEPOT, steady-state, 6 days
  Choroid concentration, mean (n = 4): 96 (n = 4) μM
  Retina concentration, mean (n = 4): 13 (n = 4) μM
[2]; [6]
  Choroid concentration, average with high value dropped (n = 3): 20.9 μM and 21 (n = 3)* μM
  Retina concentration, average with high value dropped (n = 3): 5.17 μM and 5.2 (n = 3)* μM
[2]; SD-8381 DEPOT versus literature nepafenac
  Retina-choroid concentration at steady-state compared with nepafenac following topical administration: approximately two orders of magnitude higher
[2]; [7]
  Choroid concentration, individual values: 322 µM and 9.78 µM and 2.43 µM and 50.4 µM
  Retina concentration, individual values: 36.8 µM and 2.01 µM and 9.14 µM and 4.37 µM
[2]; plasma versus ocular tissues
  Plasma concentration relative to ocular tissues (fold less): 10^2-10^4
[3]
  Binding to plasma proteins: highly bound to plasma proteins

## CCOC(=O)C1=Cc2cc(Cl)cc(Cl)c2OC1C(F)(F)F (stereo not drawn) [ethyl ester of SD-8381, ethyl 6,8-dichloro-2-(trifluoromethyl)-2H-chromene-3-carboxylate]
[2]; subconjunctival DEPOT 0.05 mL OU, saturated solution in sesame oil, two male DB rabbits
  Adverse events (excessive scratching, redness, other signs of irritation and pain): No apparent adverse events

## NC(=O)Cc1cccc(C(=O)c2ccccc2)c1N [Nepafenac, 2-amino-3-benzoylbenzeneacetamide]
[1]
  Anterior choroid concentration: (0.71) μM
  Anterior retina concentration: (0.11) μM
  Posterior choroid concentration: 0.055 µM
  Posterior retina concentration: 0.0027 µM
[1]; listed as nepafenac
  Anterior choroid concentration: 0.714 µM
  Anterior retina concentration: 0.110 µM
  Posterior choroid concentration: 0.0551 µM
  Posterior retina concentration: 0.00272 µM

## C[C@@H]1C[C@H]2[C@@H]3CCC4=CC(=O)C=C[C@]4(C)[C@@]3(F)[C@@H](O)C[C@]2(C)[C@@]1(O)C(=O)CO [Dexamethasone, dexamethasone]
[4]
  Retina-choroid concentration compared with SD-8381: almost two orders of magnitude less
[5]
  Choroid concentration: 0.92 µM
  Retina concentration: 0.31 µM
[5]; listed as dexamethasone
  Choroid concentration: 0.93 µM
